From patent US10323023B2, “Rho-associated protein kinase inhibitor, pharmaceutical composition comprising the same, as well as preparation method and use thereof” (Beijing Tide Pharmaceutical Co., Ltd., priority 2017, dated 2019) come the findings set out here.

For this experiment, the target named is ROCK2 (Homo sapiens (Human), UniProt O75116). The experiment in a line: ROCK2 kinase IC50 by HTRF KinEASE-STK S2 kit. The note with it: 2 hours at room temperature, ROCK2 (01-119) from Carna Biosciences. Type of experiment: biochemical. On the procedure:
The kinase IC50 was determined by a commercialized CISBIO kinase detection kit, HTRF KinEASE-STK S2 kit (62ST2PEC). ROCK2 (01-119) employed in the reaction was purchased from Carna Biosciences.
Before the assay, the following working solutions as needed were formulated with corresponding reagents according to the instruction of the kinase detection kit: 1×kinase buffer, 5×STK-S2 substrate working solution (1.5 μM) and 5×ATP working solution (1.5 μM), 5×ROCK2 kinase working solution, 4×Streptavidin-XL665 working solution, and 4×STK-Ab-Cryptate 2 detection solution. Then the assay was performed according to the following procedure.
A solution of a compound at a concentration of 10000 nM was prepared with the 1×kinase buffer containing 2.5% DMSO. Gradient dilution of the solution of the compound was performed with the kinase buffer containing DMSO, so as to obtain solutions of a test compound at 9 different concentrations. In addition to wells of test compounds, a positive well (containing all the reagents except the compound) and a negative well (containing all the reagents except the test compound and kinase) were set. Except for the control wells (positive and negative wells), a solution of a test compound (4 μL) was added to each of the reaction wells, and a solution of 2.5% DMSO was added to the control wells. Then the substrate (2 μM, i.e., 2 μL 5×STK-S2 substrate working solution) was added to each of the reaction wells. The 5×ROCK2 kinase working solution (2 μL, containing 1.4 ng ROCK2 kinase) was added to each of the reaction wells except for the negative well, the volume of which was made up with the 1×kinase buffer (2 μL). The 5×ATP working solution (2 μL) was added to each of the reaction wells, and the mixtures were incubated at room temperature for 2 hours. After the kinase reaction was complete, the 4×Streptavidin-XL665 working solution was added to each of the reaction wells, the solutions were mixed, followed by immediate addition of the 4×STK-Ab-Cryptate 2 detection solution (5 μL), and the mixtures were incubated at room temperature for 1 hour. The fluorescence signal was read on ENVISION (Perkinelmer) (excitation wavelength: 320 nm, and emission wavelength: 665 nm and 615 nm). The inhibitory rate in each well was calculated based on the fluorescence intensity value: ER (Emission Ratio)=(fluorescence intensity at 665 nm/fluorescence intensity at 615 nm); inhibitory rate=(ERpositive−ERtest compound)/(ERpositive−ERnegative)*100%. Curves were plotted and fitted to obtain the median inhibitory concentration (IC50) of each test compound with the PRISM 5.0 software.

ROCK2, sequence (O75116 1-553 limits assumed): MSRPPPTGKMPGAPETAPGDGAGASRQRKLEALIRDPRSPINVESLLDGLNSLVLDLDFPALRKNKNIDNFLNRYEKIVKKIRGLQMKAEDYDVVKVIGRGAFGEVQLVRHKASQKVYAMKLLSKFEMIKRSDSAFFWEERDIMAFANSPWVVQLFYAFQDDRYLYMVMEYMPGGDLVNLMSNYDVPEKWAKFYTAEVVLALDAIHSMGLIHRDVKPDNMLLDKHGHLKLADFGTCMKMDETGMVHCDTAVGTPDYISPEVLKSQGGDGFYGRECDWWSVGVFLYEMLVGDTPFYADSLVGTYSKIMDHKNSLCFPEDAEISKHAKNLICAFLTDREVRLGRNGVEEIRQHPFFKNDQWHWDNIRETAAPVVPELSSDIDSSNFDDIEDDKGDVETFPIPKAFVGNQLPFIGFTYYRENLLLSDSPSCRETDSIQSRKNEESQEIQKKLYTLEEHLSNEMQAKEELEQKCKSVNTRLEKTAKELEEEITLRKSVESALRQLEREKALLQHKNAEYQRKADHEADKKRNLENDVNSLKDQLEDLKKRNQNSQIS

In the case of `O=C(Nc1ccnnc1)c1cc2ccc(-c3nccc(Nc4ccc5[nH]ncc5c4)n3)cc2s1` [TDI01116, 6-(4-((1H-indazol-5-yl)amino)pyrimidin-2-yl)-N-(pyridazin-4-yl)benzo[b]thiophene-2-carboxamide], it took 236 nM to reach half-maximal inhibition (IC50).
The result for `O=C(Nc1ccnnc1)c1cc2ccc(-c3nccc(Nc4ccc5[nH]ncc5c4)n3)cc2[nH]1` [TDI01152, 6-(4-((1H-indazol-5-yl)amino)pyrimidin-2-yl)-N-(pyridazin-4-yl)-1H-indole-2-carboxamide] reads 88 nM.
In the case of `O=C(Nc1ccnnc1)c1cc2ccc(-c3nc(Nc4ccc5[nH]ncc5c4)cc4nccn34)cc2[nH]1` [TDI01164, 6-(7-((1H-indazol-5-yl)amino)imidazo[1,2-c]pyrimidin-5-yl)-N-(pyridazin-4-yl)-1H-indole-2-carboxamide], the IC50 worked out at 438 nM.
The result for `O=C(Nc1ccnnc1)c1cc2ccc(-c3ncnc(Nc4ccc5[nH]ncc5c4)n3)cc2[nH]1` [TDI01167, 6-(4-((1H-indazol-5-yl)amino)-1,3,5-triazin-2-yl)-N-(pyridazin-4-yl)-1H-indole-2-carboxamide] reads 223 nM; that for `O=C(Nc1ccnnc1)c1cc2ccc(-c3nc(Nc4ccc5[nH]ncc5c4)c4sccc4n3)cc2[nH]1` [TDI01175, 6-(4-((1H-indazol-5-yl)amino)thieno[3,2-d]pyrimidin-2-yl)-N-(pyridazin-4-yl)-1H-indole-2-carboxamide], 197 nM.
In the case of `O=C(NCc1ccnnc1)c1cc2ccc(-c3nccc(Nc4ccc5[nH]ncc5c4)n3)cc2[nH]1` [TDI01178, 6-(4-((1H-indazol-5-yl)amino)pyrimidin-2-yl)-N-(pyridazin-4-ylmethyl)-1H-indole-2-carboxamide], it took 168 nM to reach half-maximal inhibition (IC50).
The result for `O=C(Nc1ccnnc1Cl)c1cc2ccc(-c3nccc(Nc4ccc5[nH]ncc5c4)n3)cc2[nH]1` [TDI01180, 6-(4-((1H-indazol-5-yl)amino)pyrimidin-2-yl)-N-(3-chloro-pyridazin-4-yl)-1H-indole-2-carboxamide] reads 37 nM.
The result for `O=C(Nc1cnncc1Cl)c1cc2ccc(-c3nccc(Nc4ccc5[nH]ncc5c4)n3)cc2[nH]1` [TDI01181, 6-(4-((1H-indazol-5-yl)amino)pyrimidin-2-yl)-N-(5-chloro-pyridazin-4-yl)-1H-indole-2-carboxamide] reads 92 nM.
The result for `O=C(Nc1ccnnc1)c1cc2cc(-c3nccc(Nc4ccc5[nH]ncc5c4)n3)ccc2[nH]1` [TDI01188, 5-(4-((1H-indazol-5-yl)amino)pyrimidin-2-yl)-N-(pyridazin-4-yl)-1H-indole-2-carboxamide] reads 123 nM; that for `O=C(Nc1ccnnc1)c1c[nH]c2ccc(-c3nccc(Nc4ccc5[nH]ncc5c4)n3)cc12` [TDI01191, 5-(4-((1H-indazol-5-yl)amino)pyrimidin-2-yl)-N-(pyridazin-4-yl)-1H-indole-3-carboxamide], 225 nM; that for `Cn1c(C(=O)Nc2ccnnc2)cc2ccc(-c3nccc(Nc4ccc5[nH]ncc5c4)n3)cc21` [TDI01201, 6-(4-((1H-indazol-5-yl)amino)pyrimidin-2-yl)-1-methyl-N-(pyridazin-4-yl)-1H-indole-2-carboxamide], 48 nM.
Regarding `O=C(Nc1ccnnc1)c1cc2ccc(-c3ncc(F)c(Nc4ccc5[nH]ncc5c4)n3)cc2[nH]1` [TDI01213, 6-(4-((1H-indazol-5-yl)amino)-5-fluoro-pyrimidin-2-yl)-N-(pyridazin-4-yl)-1H-indole-2-carboxamide], inhibition was half-maximal at 255 nM (IC50).
The result for `Cc1nc(-c2ccc3cc(C(=O)Nc4ccnnc4)[nH]c3c2)nc(Nc2ccc3[nH]ncc3c2)c1C` [TDI01232, 6-(4-((1H-indazol-5-yl)amino)-5,6-dimethylpyrimidin-2-yl)-N-(pyridazin-4-yl)-1H-indole-2-carboxamide] reads 295 nM.
The result for `O=C(Nc1ccnnc1)c1ccc2ccc(-c3nccc(Nc4ccc5[nH]ncc5c4)n3)cc2n1` [TDI01236, 7-(4-((1H-indazol-5-yl)amino)pyrimidin-2-yl)-N-(pyridazin-4-yl)quinoline-2-carboxamide] reads 135 nM; that for `O=C(Nc1ccnnc1)N1Cc2ccc(-c3nccc(Nc4ccc5[nH]ncc5c4)n3)cc2C1` [TDI01237, 5-(4-((1H-indazol-5-yl)amino)pyrimidin-2-yl)-N-(pyridazin-4-yl)isoindoline-2-carboxamide], 171 nM; that for `Cc1cnc(-c2ccc3cc(C(=O)Nc4ccnnc4)[nH]c3c2)nc1Nc1ccc2[nH]ncc2c1` [TDI01250, 6-(4-((1H-indazol-5-yl)amino)-5-methyl-pyrimidin-2-yl)-N-(pyridazin-4-yl)-1H-indole-2-carboxamide], 208 nM.
The result for `Cc1cc(Nc2ccc3[nH]ncc3c2)nc(-c2ccc3cc(C(=O)Nc4ccnnc4)[nH]c3c2)n1` [TDI01251, 6-(4-((1H-indazol-5-yl)amino)-6-methyl-pyrimidin-2-yl)-N-(pyridazin-4-yl)-1H-indole-2-carboxamide] reads 101 nM; that for `Cc1c(Nc2ccnc(-c3ccc4cc(C(=O)Nc5ccnnc5)[nH]c4c3)n2)ccc2[nH]ncc12` [TDI01276, 6-(4-((4-methyl-1H-indazol-5-yl)amino)pyrimidin-2-yl)-N-(pyridazin-4-yl)-1H-indole-2-carboxamide], 113 nM; that for `CN(C(=O)c1cc2ccc(-c3nccc(Nc4ccc5[nH]ncc5c4)n3)cc2[nH]1)c1ccnnc1` [TDI01347, 6-(4-((1H-indazol-5-yl)amino)pyrimidin-2-yl)-N-methyl-N-(pyridazin-4-yl)-1H-indole-2-carboxamide], 356 nM.
